# According to patent US8536168B2 (Novartis AG, priority 2007, dated 2013):
# Like-named read-outs stand apart in the source and are kept apart here.
# How the values were obtained:
# [1] = tested on: Gli-luciferase activity; assay: Reporter gene assay (RGA) in TMHh12 cells, antagonism of Gli-luciferase activity in the presence of a Smo agonist; assay type: cell-based
# Method: Activity of the compounds was evaluated using a reporter gene assay (RGA) in TMHh12 cells.
# [2] = target: mouse Smoothened receptor (Mus musculus, UniProt P56726); assay: Smo binding assay, displacement of radio-labeled smoothened agonist, filter binding format (mouse); conditions: displacement of small molecule agonist of Smoothened, read-out: Mouse Smo bdg., IC50
# Source text: A Smo binding assay was developed using radio-labeled smoothened agonist for compound competition.
# [3] = 25 nM small molecule Smo agonist, read-out: RGA (25 nM Smo agonist) IC50
# [4] = read-out: RGA (1 nM Smo agonist) IC50, 1 nM small molecule Smo agonist
# Chain of mouse Smoothened receptor (P56726 33-793): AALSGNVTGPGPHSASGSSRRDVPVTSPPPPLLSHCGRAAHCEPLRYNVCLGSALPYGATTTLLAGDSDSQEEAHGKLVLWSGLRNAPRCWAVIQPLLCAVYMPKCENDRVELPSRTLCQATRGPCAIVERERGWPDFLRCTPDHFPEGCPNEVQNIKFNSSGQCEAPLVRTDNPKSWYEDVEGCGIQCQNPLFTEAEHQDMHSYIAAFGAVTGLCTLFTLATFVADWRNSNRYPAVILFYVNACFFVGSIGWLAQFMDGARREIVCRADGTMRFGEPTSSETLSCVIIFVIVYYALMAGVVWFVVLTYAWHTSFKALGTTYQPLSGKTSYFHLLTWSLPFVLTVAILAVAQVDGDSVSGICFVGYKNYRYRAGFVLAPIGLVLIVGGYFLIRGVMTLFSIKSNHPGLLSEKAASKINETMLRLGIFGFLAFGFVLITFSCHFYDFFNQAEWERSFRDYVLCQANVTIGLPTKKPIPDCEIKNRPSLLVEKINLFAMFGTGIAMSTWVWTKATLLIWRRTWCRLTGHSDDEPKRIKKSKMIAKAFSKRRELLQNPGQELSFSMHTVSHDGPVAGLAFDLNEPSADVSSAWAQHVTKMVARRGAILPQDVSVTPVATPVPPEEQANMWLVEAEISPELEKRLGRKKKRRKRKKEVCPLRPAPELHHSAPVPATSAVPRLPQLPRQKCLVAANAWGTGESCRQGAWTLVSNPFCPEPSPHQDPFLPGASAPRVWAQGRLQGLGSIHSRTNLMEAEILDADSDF
SMILES,"IC50 [1, 3] [nM]","IC50 [1, 4] [nM]",IC50 [2] [nM]
N#Cc1ccc(N2CCN(c3nnc(Cc4ccccc4)c4ccccc34)CC2)nc1 [Example 4],–,–,1000 to 10000
c1ccc(N2CCN(c3nnc(Cc4ccncc4)c4ccccc34)CC2)cc1 [Example 6],10000 to 40000,1000 to 10000,–
Cc1cc(Cc2nnc(N3CCN(c4ccccc4)CC3)c3ccccc23)ccn1 [Example 11],10000 to 40000,1000 to 10000,–
c1ccc(Cc2nnc(N3CCC(c4ccccc4)CC3)c3ccccc23)cc1 [Example 12],1000 to 10000,1000 to 10000,10000 to 40000
c1ccc(C2CCN(c3nnc(Cc4ccncc4)c4ccccc34)CC2)cc1 [Example 13],1000 to 10000,1000 to 10000,1000 to 10000
Cc1cc(Cc2nnc(N3CCC(c4ccccc4)CC3)c3ccccc23)ccn1 [Example 14],1000 to 10000,1000 to 10000,–
c1ccc2c(N3CCN(c4cnccn4)CC3)nnc(Cc3ccncc3)c2c1 [Example 20],–,1000 to 10000,1000 to 10000
Cc1cc(Cc2nnc(N3CCN(c4ccccn4)CC3)c3ccccc23)ccn1 [Example 22],10000 to 40000,1000 to 10000,–
c1ccc(N2CCN(c3nnc(Cc4ccncc4)c4ccccc34)CC2)nc1 [Example 23],10000 to 40000,1000 to 10000,10000 to 40000
c1ccc(Cc2nnc(N3CCN(c4ccccn4)CC3)c3ccccc23)cc1 [Example 24],1000 to 10000,100 to 1000,100 to 1000
c1ccc2c(N3CCN(c4ccncc4)CC3)nnc(Cc3ccncc3)c2c1 [Example 26],–,1000 to 10000,1000 to 10000
Cc1ccc(N2CCN(c3nnc(Cc4ccccc4)c4ccccc34)CC2C)cc1 (centres unmarked) [Example 27],1000 to 10000,100 to 1000,1000 to 10000
Cc1ccc(N2CCN(c3nnc(Cc4ccncc4)c4ccccc34)CC2C)cc1 (centres unmarked) [Example 28],1000 to 10000,1000 to 10000,1000 to 10000
Cc1ccc(N2CCN(c3nnc(Cc4ccnc(C)c4)c4ccccc34)CC2C)cc1 (centres unmarked) [Example 29],10000 to 40000,1000 to 10000,10000 to 40000
Clc1ccc(N2CCN(c3nnc(Cc4ccccc4)c4ccccc34)CC2)cc1Cl [Example 30],1000 to 10000,100 to 1000,1000 to 10000
c1ccc(Cc2nnc(N3CCN(c4ccc5ccccc5c4)CC3)c3ccccc23)cc1 [Example 31],1000 to 10000,100 to 1000,100 to 1000
c1ccc2cc(N3CCN(c4nnc(Cc5ccncc5)c5ccccc45)CC3)ccc2c1 [Example 32],1000 to 10000,100 to 1000,100 to 1000
Cc1cc(Cc2nnc(N3CCN(c4ccc5ccccc5c4)CC3)c3ccccc23)ccn1 [Example 33],1000 to 10000,1000 to 10000,100 to 1000

SMILES,"IC50 [1, 3] [nM]","IC50 [1, 4] [nM]",IC50 [2] [nM]
c1ccc(Cc2nnc(N3CCN(c4cccc5ccccc45)CC3)c3ccccc23)cc1 [Example 34],1000 to 10000,100 to 1000,1000 to 10000
Cc1cc(Cc2nnc(N3CCN(c4cccc5ccccc45)CC3)c3ccccc23)ccn1 [Example 35],1000 to 10000,1000 to 10000,–
c1ccc2c(N3CCN(c4nnc(Cc5ccncc5)c5ccccc45)CC3)cccc2c1 [Example 36],1000 to 10000,100 to 1000,1000 to 10000
c1ccc(Cc2nnc(N3CCN(c4ccncc4)CC3)c3ccccc23)cc1 [Example 37],1000 to 10000,100 to 1000,1000 to 10000
Cc1ccccc1N1CCN(c2nnc(Cc3ccccc3)c3ccccc23)CC1 [Example 38],1000 to 10000,1000 to 10000,10000 to 40000
COCCNC(=O)c1ccc(N2CCN(c3nnc(Cc4ccccc4)c4ccccc34)CC2)nc1 [Example 54f],100 to 1000,100 to 1000,100 to 1000
CN(C)CCNC(=O)c1ccc(N2CCN(c3nnc(Cc4ccccc4)c4ccccc34)CC2)nc1 [Example 54h],100 to 1000,100 to 1000,–
NCc1ccc(N2CCN(c3nnc(Cc4ccncc4)c4ccccc34)CC2)cc1 [Example 72],10000 to 40000,1000 to 10000,–
NCc1ccc(N2CCN(c3nnc(Cc4ccccc4)c4ccccc34)CC2)cc1 [Example 73],1000 to 10000,100 to 1000,100 to 1000
CC(=O)NCc1ccc(N2CCN(c3nnc(Cc4ccccc4)c4ccccc34)CC2)cc1 [Example 75],1000 to 10000,100 to 1000,100 to 1000
CC(=O)NCc1ccc(N2CCN(c3nnc(Cc4ccncc4)c4ccccc34)CC2)cc1 [Example 76],10000 to 40000,1000 to 10000,10000 to 40000
O=C(NCc1ccc(N2CCN(c3nnc(Cc4ccccc4)c4ccccc34)CC2)cc1)OCc1ccccc1 [Example 77],1000 to 10000,100 to 1000,100 to 1000
O=C(NCc1ccc(N2CCN(c3nnc(Cc4ccncc4)c4ccccc34)CC2)cc1)OCc1ccccc1 [Example 78],10000 to 40000,1000 to 10000,1000 to 10000
N#Cc1ccc(N2CCN(c3cnc(Cc4cccc(C#N)c4)c4ccccc34)CC2)nc1 [Example 80],10000 to 40000,1000 to 10000,–
Cc1cc(N2CCN(c3ccc(C#N)cn3)CC2)nnc1Cc1ccc(Cl)cc1 [Example 93],–,100 to 1000,< 100
Cc1c(Cc2ccc(F)cc2)nnc(N2CCN(c3ccc(C#N)cn3)CC2)c1C [Example 93a],100 to 1000,100 to 1000,< 100
COC(=O)CC(SCC(=O)NCc1ccc(N2CCN(c3nnc(Cc4ccccc4)c4ccccc34)CC2)nc1)C(=O)OC (centres unmarked) [Example 215],1000 to 10000,100 to 1000,–

# Second part, the compound after the results:
"IC50 [1, 3] [nM]","IC50 [1, 4] [nM]",IC50 [2] [nM],SMILES
100 to 1000,100 to 1000,< 100,FC(F)(F)c1ccc(N2CCCN(c3nnc(Cc4ccccc4)c4ccccc34)CC2)nc1 [Example 3]
100 to 1000,< 100,< 100,CC(C)(C)c1ccc(N2CCN(c3nnc(Cc4cc(Cl)cc(Cl)c4)c4ccccc34)CC2)nc1 [Example 9]
1000 to 10000,< 100,100 to 1000,FC(F)(F)c1cnc(N2CCCN(c3nnc(Cc4ccccc4)c4ccccc34)CC2)c(Cl)c1 [Example 17]
100 to 1000,< 100,< 100,c1ccc(Cc2nnc(N3CCN(c4ccc5ccccc5n4)CC3)c3ccccc23)cc1 [Example 18]
100 to 1000,< 100,< 100,N#Cc1ccc(N2CCCN(c3nnc(Cc4ccccc4)c4ccccc34)CC2)nc1 [Example 19]
1000 to 10000,100 to 1000,100 to 1000,c1ccc(Cc2nnc(N3CCN(c4cnccn4)CC3)c3ccccc23)cc1 [Example 21]
1000 to 10000,< 100,100 to 1000,c1ccc(Cc2nnc(N3CCN(c4ncccn4)CC3)c3ccccc23)cc1 [Example 25]
100 to 1000,< 100,100 to 1000,c1ccc(Cc2nnc(N3CCCN(c4ncccn4)CC3)c3ccccc23)cc1 [Example 40]
100 to 1000,< 100,100 to 1000,Cc1ccnc(N2CCCN(c3nnc(Cc4ccccc4)c4ccccc34)CC2)n1 [Example 41]
100 to 1000,< 100,< 100,CCCc1cnc(N2CCN(c3nnc(Cc4ccccc4)c4ccccc34)CC2)nc1 [Example 42]
< 100,< 100,< 100,CCc1cnc(N2CCN(c3nnc(Cc4ccccc4)c4ccccc34)CC2)nc1 [Example 43]
100 to 1000,< 100,< 100,CCCc1cnc(N2CCCN(c3nnc(Cc4ccccc4)c4ccccc34)CC2)nc1 [Example 44]
100 to 1000,< 100,< 100,CCc1cnc(N2CCCN(c3nnc(Cc4ccccc4)c4ccccc34)CC2)nc1 [Example 45]
< 100,< 100,< 100,Cc1ccnc(N2CCN(c3nnc(Cc4ccccc4)c4ccccc34)CC2)n1 [Example 47]
100 to 1000,< 100,100 to 1000,"CN(CCO)C(=O)c1ccc(N2CCN(c3nnc(Cc4ccccc4)c4ccccc34)CC2)nc1 [Example 54c, 6-[4-(4-Benzyl-phthalazin-1-yl)-piperazin-1-yl]-N-(2-hydroxy-ethyl)-N-methyl-nicotinamide]"
100 to 1000,< 100,100 to 1000,O=C(NCCO)c1ccc(N2CCN(c3nnc(Cc4ccccc4)c4ccccc34)CC2)nc1 [Example 54e]
100 to 1000,< 100,100 to 1000,COCCN(C)C(=O)c1ccc(N2CCN(c3nnc(Cc4ccccc4)c4ccccc34)CC2)nc1 [Example 54g]
100 to 1000,< 100,< 100,O=C(NCc1ccccc1)c1ccc(N2CCN(c3nnc(Cc4ccccc4)c4ccccc34)CC2)nc1 [Example 54l]
100 to 1000,< 100,< 100,O=C(NCC1CCCCC1)c1ccc(N2CCN(c3nnc(Cc4ccccc4)c4ccccc34)CC2)nc1 [Example 54m]
100 to 1000,< 100,< 100,CCCNC(=O)c1ccc(N2CCN(c3nnc(Cc4ccccc4)c4ccccc34)CC2)nc1 [Example 54n]
100 to 1000,< 100,100 to 1000,O=C(c1ccc(N2CCN(c3nnc(Cc4ccccc4)c4ccccc34)CC2)nc1)N1CCC(O)C1 (centres unmarked) [Example 54o]
100 to 1000,< 100,< 100,O=C(c1ccc(N2CCN(c3nnc(Cc4ccccc4)c4ccccc34)CC2)nc1)N1CCSC1 [Example 54p]
100 to 1000,< 100,–,NCc1ccc(N2CCN(c3nnc(Cc4ccccc4)c4ccccc34)CC2)nc1 [Example 71]
100 to 1000,< 100,–,CCN1CCOc2cc3c(cc21)Oc1cc2c(cc1=N3)OCC[N+]=2CCCCCC(=O)NCc1ccc(N2CCN(c3nnc(Cc4ccccc4)c4ccccc34)CC2)nc1 [Example 74]
